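Compound exposure: 48 hours, 5 concentrations, 96-well plates. GI50: concentration for 50% inhibition of growth.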 Active and inactive are the calls of the source. No stated cut-off is given here; in the data, active = GI50 up to about 1.1 µM and inactive = higher.
Assays:
Assay in all cases: inhibition of tumour cell growth, NCI panel, 48 h
OVCAR-5 = system: OVCAR-5
MOLT-4 = system: MOLT-4
MCF7 = system: MCF7
CAKI-1 = system: CAKI-1
HT-29 = system: HT-29
SF-268 = system: SF-268
OVCAR-8 = system: OVCAR-8
Hs-578T = system: Hs-578T
RXF 393 = system: RXF 393
UACC-62 = system: UACC-62
A549 = system: A549
SK-OV-3 = system: SK-OV-3
786-0 = system: 786-0
SN12C = system: SN12C
SF-295 = system: SF-295
HCT-15 = system: HCT-15
SK-MEL-5 = system: SK-MEL-5
SW-620 = system: SW-620
CCRF-CEM = system: CCRF-CEM

| Structure (SMILES) | GI50 (OVCAR-5) | GI50 (MOLT-4) | GI50 (MCF7) | GI50 (CAKI-1) | GI50 (HT-29) | GI50 (SF-268) | GI50 (OVCAR-8) | GI50 (Hs-578T) | GI50 (RXF 393) | GI50 (UACC-62) | GI50 (A549) | GI50 (SK-OV-3) | GI50 (786-0) | GI50 (SN12C) | GI50 (SF-295) | GI50 (HCT-15) [µM] | GI50 (SK-MEL-5) | GI50 (SW-620) | GI50 (CCRF-CEM) |
| --- | --- | --- | --- | --- | --- | --- | --- | --- | --- | --- | --- | --- | --- | --- | --- | --- | --- | --- | --- |
| COc1ccc(-c2cc3cc(Cl)cc(Cl)c3oc2=O)cc1OC | > 100 µM (inactive) | > 100 µM (inactive) | 59.3 µM (inactive) | > 100 µM (inactive) | 55.2 µM (inactive) | 43.6 µM (inactive) | 65.8 µM (inactive) | 31.4 µM (inactive) | 19.4 µM (inactive) | 63.2 µM (inactive) | 92.3 µM (inactive) | 74.8 µM (inactive) | 35.3 µM (inactive) | 39.8 µM (inactive) | 48.5 µM (inactive) | 48.8 | 28.8 µM (inactive) | > 100 µM (inactive) | > 100 µM (inactive) |
| COc1ccccc1-c1nc(-c2ccccc2O)n[nH]1 | > 100 µM (inactive) | > 100 µM (inactive) | > 100 µM (inactive) | > 100 µM (inactive) | > 100 µM (inactive) | > 100 µM (inactive) | > 100 µM (inactive) | > 100 µM (inactive) | > 100 µM (inactive) | > 100 µM (inactive) | > 100 µM (inactive) | > 100 µM (inactive) | > 100 µM (inactive) | > 100 µM (inactive) | > 100 µM (inactive) | 45.9 | > 100 µM (inactive) | > 100 µM (inactive) | > 100 µM (inactive) |
| C=CCOC(=O)C1=C(C)N=C2N[C@H](CCCCCCCCC)C[C@@H]3CCC1N23 (stereo not given in full) | 22.7 µM (inactive) | 30.1 µM (inactive) | 18 µM (inactive) | 34 µM (inactive) | 27.9 µM (inactive) | 19.3 µM (inactive) | 30.5 µM (inactive) | 21.5 µM (inactive) | 19.5 µM (inactive) | 17.7 µM (inactive) | 30.1 µM (inactive) | 27.5 µM (inactive) | 20 µM (inactive) | 18.2 µM (inactive) | 34.9 µM (inactive) | 21.3 | 17.7 µM (inactive) | 28.7 µM (inactive) | 36.4 µM (inactive) |
| CC(=O)Nc1sc([N+](=O)[O-])cc1S(=O)(=O)c1ccc(Cl)cc1 | 4.7 µM (inactive) | 3.78 µM (inactive) | 2.86 µM (inactive) | 3.31 µM (inactive) | 3.13 µM (inactive) | 4.35 µM (inactive) | 3.78 µM (inactive) | 3.56 µM (inactive) | 2.64 µM (inactive) | 1.67 µM (inactive) | 2.4 µM (inactive) | 2.5 µM (inactive) | 4.66 µM (inactive) | 3.8 µM (inactive) | 2.14 µM (inactive) | 3.85 | 1.12 µM (active) | 5.37 µM (inactive) | 8.2 µM (inactive) |
| CC(C)=CCc1[nH]c2ccccc2c1C1=C(O)C(=O)C(c2c(CC=C(C)C)[nH]c3ccccc23)=C(O)C1=O | 2.89 µM (inactive) | 1.96 µM (inactive) | 2.26 µM (inactive) | 1.73 µM (inactive) | 2.22 µM (inactive) | 0.409 µM (active) | 1.53 µM (inactive) | 1.04 µM (active) | 1.75 µM (inactive) | 0.377 µM (active) | 0.587 µM (active) | 2.11 µM (inactive) | 1.56 µM (inactive) | 1.26 µM (inactive) | 1.03 µM (active) | 1.33 | 1.76 µM (inactive) | 3.27 µM (inactive) | 1.03 µM (active) |
| CC1CC(=O)Nc2ccc(/N=N/N(C)C)cc2N1C=O (stereo not given) | > 100 µM (inactive) | > 100 µM (inactive) | > 100 µM (inactive) | > 100 µM (inactive) | > 100 µM (inactive) | > 100 µM (inactive) | > 100 µM (inactive) | > 100 µM (inactive) | > 100 µM (inactive) | > 100 µM (inactive) | > 100 µM (inactive) | > 100 µM (inactive) | > 100 µM (inactive) | > 100 µM (inactive) | > 100 µM (inactive) | > 100 | > 100 µM (inactive) | > 100 µM (inactive) | > 100 µM (inactive) |
| Nc1cc(-c2ccc(Cl)cc2)nn1-c1nc2ccccc2nc1-c1ccccc1 | > 100 µM (inactive) | 8.02 µM (inactive) | > 100 µM (inactive) | > 100 µM (inactive) | 11.9 µM (inactive) | > 100 µM (inactive) | > 100 µM (inactive) | 70.5 µM (inactive) | 35 µM (inactive) | > 100 µM (inactive) | > 100 µM (inactive) | > 100 µM (inactive) | 39 µM (inactive) | 80.7 µM (inactive) | > 100 µM (inactive) | > 100 | 92 µM (inactive) | > 100 µM (inactive) | > 100 µM (inactive) |
| COc1cc(OC)c(OC)cc1/C=C/c1ccccn1 | > 10 µM (inactive) | > 10 µM (inactive) | > 10 µM (inactive) | > 10 µM (inactive) | > 10 µM (inactive) | > 10 µM (inactive) | > 10 µM (inactive) | > 10 µM (inactive) | > 10 µM (inactive) | > 10 µM (inactive) | > 10 µM (inactive) | > 10 µM (inactive) | > 10 µM (inactive) | > 10 µM (inactive) | > 10 µM (inactive) | > 10 | > 10 µM (inactive) | > 10 µM (inactive) | > 10 µM (inactive) |
| CCCCCCCCCCCCCCCC(=O)OCC1CCCN2CCCCC12 (stereo not given) | > 100 µM (inactive) | > 100 µM (inactive) | > 100 µM (inactive) | > 100 µM (inactive) | > 100 µM (inactive) | > 100 µM (inactive) | > 100 µM (inactive) | > 100 µM (inactive) | > 100 µM (inactive) | > 100 µM (inactive) | > 100 µM (inactive) | > 100 µM (inactive) | > 100 µM (inactive) | > 100 µM (inactive) | > 100 µM (inactive) | > 100 | > 100 µM (inactive) | > 100 µM (inactive) | > 100 µM (inactive) |
| O=[N+]([O-])c1ccc(NC(=S)Nc2ccccn2)cc1 | 27.7 µM (inactive) | 16.9 µM (inactive) | 12.4 µM (inactive) | 5.11 µM (inactive) | 31.7 µM (inactive) | 26.9 µM (inactive) | 31.5 µM (inactive) | 13.8 µM (inactive) | 4.68 µM (inactive) | 19.9 µM (inactive) | 19.1 µM (inactive) | 47 µM (inactive) | 16.8 µM (inactive) | 37.2 µM (inactive) | 27.4 µM (inactive) | 18.8 | 43.3 µM (inactive) | 40.3 µM (inactive) | > 64.4 µM (inactive) |
| Cc1c2ccncc2c(C)c2c1sc1ccccc12 | 21 µM (inactive) | 2.33 µM (inactive) | 1.84 µM (inactive) | 7.45 µM (inactive) | 6.1 µM (inactive) | 11.3 µM (inactive) | 8.22 µM (inactive) | 13.6 µM (inactive) | 10 µM (inactive) | 5.24 µM (inactive) | 4.33 µM (inactive) | 13.1 µM (inactive) | 4.86 µM (inactive) | 9.38 µM (inactive) | 10.1 µM (inactive) | 7.24 | 7.87 µM (inactive) | 7.06 µM (inactive) | 3.31 µM (inactive) |
| O=C(/C=C/c1ccc(OCc2ccccc2)cc1)NCc1ccc(C(=O)NCCc2c[nH]c3ccccc23)cc1 | 18.2 µM (inactive) | > 59.8 µM (inactive) | 17.1 µM (inactive) | 9.18 µM (inactive) | 4.33 µM (inactive) | 11.1 µM (inactive) | 6.76 µM (inactive) | 6.35 µM (inactive) | 7.06 µM (inactive) | 15.5 µM (inactive) | 17.7 µM (inactive) | 15.7 µM (inactive) | 3.61 µM (inactive) | 23.8 µM (inactive) | 3.41 µM (inactive) | > 94 | 17.8 µM (inactive) | > 65.2 µM (inactive) | 70.6 µM (inactive) |
| O=C(O)c1cccc(/C=C/c2ccccc2)c1 | > 100 µM (inactive) | > 100 µM (inactive) | > 100 µM (inactive) | > 100 µM (inactive) | > 100 µM (inactive) | > 100 µM (inactive) | > 100 µM (inactive) | > 100 µM (inactive) | > 100 µM (inactive) | > 100 µM (inactive) | > 100 µM (inactive) | > 100 µM (inactive) | > 100 µM (inactive) | > 100 µM (inactive) | > 100 µM (inactive) | > 100 | > 100 µM (inactive) | > 100 µM (inactive) | > 100 µM (inactive) |
| O/N=N/c1ccc(-c2ccccc2)cn1 | 20.3 µM (inactive) | 0.0755 µM (active) | 1.44 µM (inactive) | 4.55 µM (inactive) | 20.6 µM (inactive) | 4.59 µM (inactive) | 15 µM (inactive) | 23.8 µM (inactive) | 1.38 µM (inactive) | 7.64 µM (inactive) | 21.7 µM (inactive) | 20.3 µM (inactive) | 6.38 µM (inactive) | 10.8 µM (inactive) | 8.13 µM (inactive) | 19.6 | 11.9 µM (inactive) | 10.7 µM (inactive) | 2.2 µM (inactive) |
| O=C(O)C(Cc1ccccc1)N1C(=O)c2ccccc2C1=O (stereo not given) | > 100 µM (inactive) | > 100 µM (inactive) | > 100 µM (inactive) | > 100 µM (inactive) | > 100 µM (inactive) | > 100 µM (inactive) | > 100 µM (inactive) | > 100 µM (inactive) | > 100 µM (inactive) | > 100 µM (inactive) | > 100 µM (inactive) | > 100 µM (inactive) | > 100 µM (inactive) | > 100 µM (inactive) | > 100 µM (inactive) | > 100 | > 100 µM (inactive) | 18.7 µM (inactive) | 4.01 µM (inactive) |

Source: ChEMBL document CHEMBL1201862, “PubChem BioAssay data set” (2004)
